Reference: patent publication US4734421A, “Anti-inflammatory substituted 2-benzyl-mercapto-imidazole and pyrimidine derivatives compositions and method of use therefor” (Merck & Co., Inc., priority 1986, dated 1988)

Columns and labels:
Rat Foot Edema = Rat Foot Edema Assay (CFE); assay type: in vivo; conditions: for Edema (% inhibition): Table 2a, Dosage (μg) 30
Description: (§1) The rat foot edema assay CFE and the topical mouse ear assay were used to evaluate the anti-inflammatory activity of the novel compounds of the present invention. These are established assay for screening non steroridal anti-inflammatory agents.
Representative compounds of formula (I) or (II) were tested according to the well-established procedures of rat foot edema assay published in 1962 by C. A. Winter, E. A. Risley and G. W. Nuss, Proc Soc Exp Biol Med. III, 544 (1962).
Results: The effect of representative compounds on Rat Foot Edema

Mouse Ear Edema = test: Topical Mouse Ear Assay (Mouse Ear Edema); assay type: in vivo; conditions: Table 1, Dosage 300 μg, irritant (PMA or AA) not given
Description: as §1
The right ears of mice (5 mice per group) were treated topically with either 5μ PMA ([…]) or 1000μ AA alone or with the test compound in 25μ of vehicle. The vehicle was water/pyridine/acetone (1:2:97). A control group of mice received the vehicle only. The mice were allowed food and water ad libitum during the treatment period; 2 hours for AA and 4 hours for PMA. The mice were sacrificed by cervical dislocation and a 6 mm diameter disc of tissue punched from both the treated and untreated ears. The tissue biopsies were immediately weighed and the weight increase of the treated ear relative to the weight of the untreated ear determined.
Results: The effect of representative compounds on Mouse Ear Edema

## COc1ccc(O)c(CSc2nccn2C)c1 [drawing 10]
Rat Foot Edema
  Edema (% inhibition): 74%

## COc1ccc(O)c(CSc2nc3ccccc3[nH]2)c1 [drawing 7]
Mouse Ear Edema
  Edema (% inhibition): 76%

## COc1ccc(O)c(CSc2nccn2C)c1 [drawing 5]
Mouse Ear Edema
  Edema (% inhibition): 45%

## COc1ccc(O)c(CSc2ncccn2)c1 [drawing 8]
Mouse Ear Edema
  Edema (% inhibition): 32%

## COc1ccc(O)c(CSc2nc(C)c[nH]2)c1
Rat Foot Edema
  Edema (% inhibition): 74%

## COc1ccc(O)c(CSc2ncc(C)n2C)c1 [drawing 11]
Rat Foot Edema
  Edema (% inhibition): 54%

## COc1ccc(O)c(CSc2ncc(C)n2C)c1 [drawing 6]
Mouse Ear Edema
  Edema (% inhibition): 65%

## Cc1cnc(SCc2cc3c(cc2O)CCCO3)n1C
Rat Foot Edema; Table 2b, Dosage (mpk) 30
  % Inhibition: 42%

## COc1ccc(O)c(CSc2nc(C)cn2C)c1
Rat Foot Edema
  Edema (% inhibition): 77%

## COc1ccc(O)c(CSc2ncccn2)c1 [drawing 15]
Rat Foot Edema
  Edema (% inhibition): 3%

## COc1ccc(O)c(CSc2nc3ccccc3[nH]2)c1 [drawing 14]
Rat Foot Edema
  Edema (% inhibition): 21%
